pIC50: −log10 of the molar value.

The target in this assay is Autotaxin (Homo sapiens, UniProt Q13822). Briefly: Inhibitory Activity Assay: Two-fold dilution of each test compound solution (10 μM, 100% dimethyl sulfoxide) is carried out on 96-well V bottom plate (Costar 3363). After ten-fold dilution of each the test compound solution (100% dimethyl sulfoxide) with deionized distilled water, 10 μL of the diluted each mpound solution (10% dimethyl sulfoxide) was aliquoted to a black flat bottom 96-well plate (Costar 3915). 50 μL of 1.6× Assay solution (224 mM NaCl, 80 mM Tris-HCl (pH 8.0), 8 mM KCl, 1.6 mM CaCl2, 1.6 mM MgCl2, and 1.6 mg/mL fatty acid free BSA) was added thereto, and subsequently 20 μL of 20 nM human ENPP2 solution (buffer solution: 140 mM NaCl, 50 mM Tris-HCl (pH 8.0), 5 mM KCl, 1 mM CaCl2, 1 mM MgCl2, and 1 mg/mL fatty acid free BSA) and 20 μL of 5 μM FS-3 solution (buffer solution:deionized distilled water) were added thereto, respectively, followed by mixing.
In turn, `O=C(Cc1nc(-c2cnc(NC3Cc4ccccc4C3)nc2)no1)N1CCc2[nH]nnc2C1` gave a pIC50 of 8.60.
The same measure for `O=C(NCCN1CCN(c2cnc(NC3Cc4ccccc4C3)nc2)CC1)c1ccc2[nH]c(=O)oc2c1`: 8.54; for `NS(=O)(=O)NC1CCN(C(=O)Cc2nnc(-c3cnc(NC4Cc5ccccc5C4)nc3)o2)C1` (centres undefined): 8.34; for `O=C(Cn1cc(-c2cnc(NCc3cccc(OC(F)(F)F)c3)nc2)nn1)N1CCc2[nH]nnc2C1`: 8.54.

For orientation: pIC50 means the IC50 on a negative log10 scale, so that one unit is a factor of ten. High values mean a small IC50, low ones a large IC50.
